Results from patent publication US8895509B2, “MIR-200 family induces mesenchymal-to-epithelial transition (MET) in ovarian cancer cells” (Georgia Tech Research Corporation, priority 2010, dated 2014).

Tests used:
Assay type in all cases: cell-based, human
HEY cells [1] = assay: serum-induced migration, trans-well chamber assay; conditions: miR-429 transfected HEY cells vs negative control
Experimental: (§1) For the migration and invasion assays, 2.5×10^3 overnight serum starved cells in serum-free media were added to the top chambers of trans-well plates (8 μm pore size; BD, Franklin Lakes, N.J.) and media containing 10% fetal calf serum (FCS) were added to the bottom chambers. After 8-12 h, the non-migrating (top) cells were removed and the invading (bottom) cells were counted. All assays were done in triplicate. For the wound-healing assay, 2.5×10^5 cells were seeded into six-well plates. After 24 h, a wound was incised, detached cells removed and fresh media added. Photos were taken after 8 hrs to monitor the invasion of cells into the wounded area.
(§2) To further explore the effects of ectopic expression of miR-429 in HEY cells, we looked for changes in cellular functions frequently associated with EMT. For example, ovarian and other types of cancer cells undergoing EMT typically display increased motility/migration and invasiveness. […] Relative invasiveness was also measured by monitoring serum-induced invasion through a matrigel layer.

HEY cells [2] = assay: serum-induced invasion through a matrigel layer; conditions: miR-429 transfected HEY cells vs negative control
Experimental: as §1, §2

HEY cells [3] = assay: sensitivity of transfected HEY cells to cisplatin; conditions: miR-429 vs negative control miRNA
Experimental: Cultures of the mesenchymal HEY cells were transfected with a negative control (NC) miRNA or miR-429 using Lipofectamine 2000 (Invitrogen) and treated with increasing concentrations of cisplatin. (0.1, 0.5, 1, 3, 5, 7, 10, 15, 20, 30, 50 μM).

HEY cells [4] = assay: microarray profiling (Affymetrix HG-U133 Plus 2.0) of miR-429 transfected HEY cells; conditions: for Fold-change: miR-429 transfected HEY cells
Experimental: 6×10^4 cells per well were seeded in 24-well plates. After 24 h, cells were transfected with 30 nM of miR-429 and miR-320 miRNA oligonucleotides (Ambion, Austin, Tex.) using Lipofectamine 2000 reagent (Invitrogen, Carlsbad, Calif.). The Ambion Pre-miRNA Precursor Negative Control was used as a control. Three days after transfection, cells were split and transfected again. This process was repeated every 3 days until 21 days when cells were assayed for response.
Microarray analyses were performed using the Affymetrix system (HG-U133 Plus 2.0; Santa Clara, Calif.) as previously described [Bowen et al., BMC Med Genomics 2009, 2:71]. Briefly, the expression data were analyzed using MAS 5.0 Statistical Algorithm encoded in the Affymetrix Expression Console application. The expression values were normalized across samples by Z-score calculation using Spotfire Decision Site software. […] Gene enrichment analyses were carried out using GeneGO (http://www.genego.com/) gene ontology software.

For “miR-429: miR-200 family member; mature miRNA UAAUACUGUCUGGUAAAACCGU (SEQ ID NO: 6); miRNA oligonucleotide (Ambion) transfected at 30 nM (listed as RNA, chemistry not given here; listed as Homo sapiens) [miR-200 family member; miRNA oligonucleotide (Ambion) transfected at 30 nM]”, the “migration through pores, slower than negative controls” value (HEY cells [1]) was > 2 fold, the “decrease in invasion relative to controls” value (HEY cells [2]) was > 5 fold and the sensitivity to cisplatin (HEY cells [3]) was “increased significantly”. For the same substance, the “Fold change (miR-429 transfected HEY cells relative to negative controls)” value (HEY cells [4]; gene AARS) was −2.57, the “Fold change (miR-429 transfected HEY cells relative to negative controls)” value (HEY cells [4]; gene ABCF2) was −3.48 and the “Fold change (miR-429 transfected HEY cells relative to negative controls)” value (HEY cells [4]; gene ALDH1L2) was −11.31. The “Fold change (miR-429 transfected HEY cells relative to negative controls)” value (HEY cells [4]; gene ANK2) was −3.58, the “Fold change (miR-429 transfected HEY cells relative to negative controls)” value (HEY cells [4]; gene ANKRD23) was −7.62 and the “Fold change (miR-429 transfected HEY cells relative to negative controls)” value (HEY cells [4]; gene ASAM) was −3.48. The “Fold change (miR-429 transfected HEY cells relative to negative controls)” value (HEY cells [4]; gene ASNS) was −6.82, the Fold-change (HEY cells [4]; gene B3GALNT2) was −2.16 and the “Fold change (miR-429 transfected HEY cells relative to negative controls)” value (HEY cells [4]; gene BCHE) was −2.93. The “Fold change (miR-429 transfected HEY cells relative to negative controls)” value (HEY cells [4]; gene C6orf105) was −2.48, the “Fold change (miR-429 transfected HEY cells relative to negative controls)” value (HEY cells [4]; gene C11orf57) was −2.41 and the “Fold change (miR-429 transfected HEY cells relative to negative controls)” value (HEY cells [4]; gene C12orf39) was −10.06. The “Fold change (miR-429 transfected HEY cells relative to negative controls)” value (HEY cells [4]; gene C12orf55) was −6.06, the “Fold change (miR-429 transfected HEY cells relative to negative controls)” value (HEY cells [4]; gene C17orf51) was −3.46 and the “change in expression by microarray” value (HEY cells [4]; gene CAV2 (epithelial marker)) was “up-regulated”. The “Fold change (miR-429 transfected HEY cells relative to negative controls)” value (HEY cells [4]; gene CBS) was −2.68, the “Fold change (miR-429 transfected HEY cells relative to negative controls)” value (HEY cells [4]; gene CCDC148) was −3.39 and the “Fold change (miR-429 transfected HEY cells relative to negative controls)” value (HEY cells [4]; gene CCDC152) was −3.10. For the same substance, the “Fold change (miR-429 transfected HEY cells relative to negative controls)” value (HEY cells [4]; gene CCND2) was −4.03, the “Fold change (miR-429 transfected HEY cells relative to negative controls)” value (HEY cells [4]; gene CCNJ) was −2.45 and the “Fold change (miR-429 transfected HEY cells relative to negative controls)” value (HEY cells [4]; gene CDC42EP1) was −3.48. For the same substance, the “Fold change (miR-429 transfected HEY cells relative to negative controls)” value (HEY cells [4]; gene CDKAL1) was −2.64, the “Fold change (miR-429 transfected HEY cells relative to negative controls)” value (HEY cells [4]; gene CDO1) was −13.45 and the Fold-change (HEY cells [4]; gene CFL2) was −1.75. The “Fold change (miR-429 transfected HEY cells relative to negative controls)” value (HEY cells [4]; gene CHST10) was −4.03, the “Fold change (miR-429 transfected HEY cells relative to negative controls)” value (HEY cells [4]; gene CLGN) was −2.79 and the “Fold change (miR-429 transfected HEY cells relative to negative controls)” value (HEY cells [4]; gene COLEC12) was −16.11. For the same substance, the “Fold change (miR-429 transfected HEY cells relative to negative controls)” value (HEY cells [4]; gene CXCL3) was −2.57, the “Fold change (miR-429 transfected HEY cells relative to negative controls)” value (HEY cells [4]; gene CYCS) was −2.73 and the “Fold change (miR-429 transfected HEY cells relative to negative controls)” value (HEY cells [4]; gene DDR2) was −2.68. The Fold-change (HEY cells [4]; gene DNAJB4) was −1.53, the Fold-change (HEY cells [4]; gene DPY19L1) was −1.64 and the “change in expression by microarray” value (HEY cells [4]; gene DSP (epithelial marker)) was “up-regulated”. The Fold-change (HEY cells [4]; gene EIF2B5) was −2.10, the “change in expression by microarray” value (HEY cells [4]; gene EPCAM (epithelial marker)) was “up-regulated” and the “Fold change (miR-429 transfected HEY cells relative to negative controls)” value (HEY cells [4]; gene EPHB1) was −4.06. For the same substance, the “Fold change (miR-429 transfected HEY cells relative to negative controls)” value (HEY cells [4]; gene ERN1) was −3.51, the “Fold change (miR-429 transfected HEY cells relative to negative controls)” value (HEY cells [4]; gene EXOSC6) was −2.87 and the “Fold change (miR-429 transfected HEY cells relative to negative controls)” value (HEY cells [4]; gene F2RL2) was −5.35. For the same substance, the “Fold change (miR-429 transfected HEY cells relative to negative controls)” value (HEY cells [4]; gene FLJ34077) was −2.73, the “Fold change (miR-429 transfected HEY cells relative to negative controls)” value (HEY cells [4]; gene FOXP3) was −3.76 and the “Fold change (miR-429 transfected HEY cells relative to negative controls)” value (HEY cells [4]; gene GALNT12) was −2.39. For the same substance, the “Fold change (miR-429 transfected HEY cells relative to negative controls)” value (HEY cells [4]; gene GART) was −3.94, the “Fold change (miR-429 transfected HEY cells relative to negative controls)” value (HEY cells [4]; gene GAS7) was −12.55 and the “Fold change (miR-429 transfected HEY cells relative to negative controls)” value (HEY cells [4]; gene GLIPR1) was −2.73. The “Fold change (miR-429 transfected HEY cells relative to negative controls)” value (HEY cells [4]; gene GLT8D2) was −4.76, the “Fold change (miR-429 transfected HEY cells relative to negative controls)” value (HEY cells [4]; gene GPATCH4) was −2.87 and the Fold-change (HEY cells [4]; gene GREM1) was −2.10. For the same substance, the “Fold change (miR-429 transfected HEY cells relative to negative controls)” value (HEY cells [4]; gene GRK4) was −3.14, the “Fold change (miR-429 transfected HEY cells relative to negative controls)” value (HEY cells [4]; gene HIF3A) was −3.12 and the “Fold change (miR-429 transfected HEY cells relative to negative controls)” value (HEY cells [4]; gene HORMAD1) was −10.48. The “Fold change (miR-429 transfected HEY cells relative to negative controls)” value (HEY cells [4]; gene HS6ST3) was −2.64, the “Fold change (miR-429 transfected HEY cells relative to negative controls)” value (HEY cells [4]; gene HSPA9) was −2.48 and the “Fold change (miR-429 transfected HEY cells relative to negative controls)” value (HEY cells [4]; gene INTS4) was −2.81. For the same substance, the “Fold change (miR-429 transfected HEY cells relative to negative controls)” value (HEY cells [4]; gene JDP2) was −3.46, the “Fold change (miR-429 transfected HEY cells relative to negative controls)” value (HEY cells [4]; gene KIAA1853) was −3.32 and the “Fold change (miR-429 transfected HEY cells relative to negative controls)” value (HEY cells [4]; gene KLHL13) was −2.57. It also gave a Fold-change (HEY cells [4]; gene LDLRAD3) of −1.74.
